The values that follow are results of earlier work, collected in patent EP2136625B1, “USE OF A MEANS FOR THE SI[…] WEEDS, ALGAE, PHYTOPATHOGENIC BACTERIA, FUNGI, VIRUSES AND VIROIDS” (priority 2007, dated 2008).

For this series the following is noted: Methode EPA-FIFRA, Sonnenbarsch, 46 d.

Regarding `CCCCCCCCCC[N+](C)(C)CCCCCCCCCC.[Cl-]` [DDAC, Didecyldimethylammoniumchlorid], the BCF is recorded as 81.
